Results as given in patent US20180200368A1, “DISRUPTION OR ALTERATION OF MICROBIOLOGICAL FILMS” (UNIVERSITEIT GENT, priority 2015, published 2018).

Experiments:
Experiment in all cases: Bacterial viability of biofilm after VNB cluster disruption and tobramycin treatment
Assay type in all cases: cell-based
[1] = system: Burkholderia multivorans LMG18825 biofilms; settings: 70 nm AuNPs + single 7 ns pulse of 561 nm laser (2.8 J/cm2), then tobramycin 32 μg/mL for 24 hours at 37° C.; vs tobramycin alone
Description: (§1) In the study, the synergistic effect of vapour nanobubble mediated cluster disruption and antibiotic treatment was evaluated for 3 types of bacteria. As gram-negatives, Burkholderia multivorans LMG18825 and Pseudomonas aeruginosa LESB58 were selected. Staphylococcus aureus Mu50, often implicated in skin and soft tissue infections, was chosen as a challenging representative of gram-positive bacteria. AuNPs were evaluated for achieving efficient loading and disruption of biofilm clusters. […] The Bacteria are stained with SYTO59 and the gold particles were detected by reflection of the laser light.
(§2) In further experiments, the synergistic effect of VNB biofilm cluster disruption with relevant antibiotics or disinfectants is evaluated. The biofilm first received a laser treatment for cluster disruption, followed by treatment with tobramycin. Proper controls were taken into account: untreated control, only AuNPs, only laser treatment, VNBs only, AuNPs with tobramycin. Each location in the biofilm received a single 7 ns pulse of 561 nm laser light (2.8 J/cm2) followed by Tobramycin treatment at 32 μg/mL, 16 μg/mL and 1024 μg/mL for Burkholderia multivorans, Pseudomonas aeruginosa and Staphylococcus aureus biofilms, respectively. The bacterial viability following vapour nanobubble generation and antibiotic treatment is shown in FIG. 5 The different experiments are as follows: […]

[2] = system: Staphylococcus aureus Mu50 biofilms; settings: 70 nm AuNPs + single 7 ns pulse of 561 nm laser (2.8 J/cm2), then tobramycin 1024 μg/mL for 24 hours at 37° C.
Description: as §1, §2

[3] = system: Pseudomonas aeruginosa LESB58 biofilms
Description: as §1
as §2, with “respectively.” for “respectively. The bacterial viability following vapour nanobubble generation and antibiotic treatment is shown in FIG. 5 The different experiments are as follows:”
In another experiment, the effect of applying different laser pulses on the biofilm was evaluated. […]

## NC[C@H]1O[C@H](O[C@H]2[C@H](O)[C@@H](O[C@H]3O[C@H](CO)[C@@H](O)[C@H](N)[C@H]3O)[C@H](N)C[C@@H]2N)[C@H](N)C[C@@H]1O [tobramycin]
[1]
  increased eradication potency of tobramycin by use of VNBs: ~50 times
[2]
  CFU decrease of combined VNB-tobramycin treatment as compared to tobramycin alone: ~10 times
[3]; 10 laser pulses of 7 ns of 561 nm (2.8 J/cm2) per location (10× VNB formation), then tobramycin for 24 hours at 37° C.
  CFU decrease in comparison with treatment with tobramycin alone: ~4000 times
[3]; 70 nm AuNPs + single 7 ns pulse of 561 nm laser (2.8 J/cm2), then tobramycin 16 μg/mL for 24 hours at 37° C.
  CFU decrease of combined VNB-tobramycin treatment as compared to tobramycin alone: ~20 times
